Reference: US20060128724A1, “Pyrazole-substituted aminoheteroaryl compounds as protein kinase inhibitors” (AGOURON PHARMACEUTICALS, INC., priority 2004, published 2006)

Target: T1, c-MET (HGFR) (Homo sapiens, UniProt P08581)
T1 construct: purchased Upstate 14-526
Experiment: HGFR Continuous-Coupled Spectrophotometric Assay
Type: biochemical
Conditions: Met-2 substrate peptide, 50 nM HGFR, 37° C.; read-out: Met Ki
Method in brief: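 Tyrosine kinase activity of 50 nM HGFR on the activation-loop Met-2 peptide, followed as NADH consumption at 340 nm over 10 min at 37 °C in a pyruvate kinase/LDH coupled system, HEPES pH 7.5 buffer with MgCl2 and DTT.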

T1 sequence (P08581 974-1390 limits assumed): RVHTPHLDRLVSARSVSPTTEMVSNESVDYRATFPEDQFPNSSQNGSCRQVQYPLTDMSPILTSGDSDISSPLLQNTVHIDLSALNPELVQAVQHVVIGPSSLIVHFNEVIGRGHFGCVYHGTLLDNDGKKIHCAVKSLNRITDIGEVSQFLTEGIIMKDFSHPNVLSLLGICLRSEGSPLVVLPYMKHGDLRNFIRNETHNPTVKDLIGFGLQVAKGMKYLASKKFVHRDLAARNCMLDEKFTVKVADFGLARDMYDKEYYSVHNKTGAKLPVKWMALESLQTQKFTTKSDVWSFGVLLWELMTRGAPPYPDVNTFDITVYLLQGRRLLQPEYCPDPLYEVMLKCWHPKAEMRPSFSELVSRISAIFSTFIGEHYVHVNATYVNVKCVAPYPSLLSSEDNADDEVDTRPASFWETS

SMILES: CC(Oc1cc(-c2cnn(C3CCN(C(=O)NCCO)CC3)c2)cnc1N)c1c(Cl)ccc(F)c1Cl (stereo not shown) [Example 122, 4-(4-[6-Amino-5-[1-(2,6-dichloro-3-fluoro-phenyl)-ethoxy]-pyridin-3-yl}-pyrazol-1-yl)-piperidine-1-carboxylic acid (2-hydroxy-ethyl)-amide]
- Ki: 150 nM

SMILES: CC(Oc1cc(-c2cnn(C3CCN(C(=O)CN4CCOCC4)CC3)c2)cnc1N)c1c(Cl)ccc(F)c1Cl (stereo not shown) [Example 123, 1-[4-(4-{6-Amino-5-[1-(2,6-dichloro-3-fluoro-phenyl)-ethoxy]-pyridin-3-yl}-pyrazol-1-yl)-piperidin-1-yl]-2-morpholin-4-yl-ethanone]
- Ki: 13 nM

SMILES: COCC(=O)N1CCC(n2cc(-c3cnc(N)c(OC(C)c4c(Cl)ccc(F)c4Cl)c3)cn2)CC1 (stereo not shown) [Example 124, 1-[4-(4-{6-Amino-5-[1-(2,6-dichloro-3-fluoro-phenyl)-ethoxy]-pyridin-3-yl}-pyrazol-1-yl)-piperidin-1-yl]-2-methoxy-ethanone]
- Ki: 14 nM

SMILES: CC(Oc1cc(-c2cnn(C3CCN(C(=O)CN4CCCC4)CC3)c2)cnc1N)c1c(Cl)ccc(F)c1Cl (stereo not shown) [Example 125, 1-[4-(4-{6-Amino-5-[1-(2,6-dichloro-3-fluoro-phenyl)-ethoxy]-pyridin-3-yl}-pyrazoI-1-yl)-piperidin-1-yl]-2-pyrrolidin-1-yl-ethanone]
- Ki: 14 nM

SMILES: CCN(CC)CC(=O)N1CCC(n2cc(-c3cnc(N)c(OC(C)c4c(Cl)ccc(F)c4Cl)c3)cn2)CC1 (stereo not shown) [Example 126, 1-[4-(4-{6-Ainino-5-[1-(2,6-dichloro-3-fluoro-phenyl)-ethoxy]-pyridin-3-yl}-pyrazol-1-yl)-piperidin-1-yl]-2-diethylamino-ethanone]
- Ki: 15 nM

SMILES: CC(Oc1cc(-c2cnn(C3CCNCC3)c2)cnc1N)c1cc(F)ccc1Br (stereo not shown) [Example 128, 3-[1-(2-Bromo-5-fluoro-phenyl)-ethoxy]-5-(1-piperidin-4-yl-1H-pyrazol-4-yl)-pyridin-2-ylamine]
- Ki: 349 nM

SMILES: CC(Oc1cccnc1N)c1cc(F)ccc1C#N (stereo not shown) [Example 129, 2-[1-(2-Amino-pyridin-3-yloxy)-ethyl]-4-fluoro-benzonitrile]
- Ki: 6460 nM

SMILES: CC(Oc1cc(-c2cnn(CC(C)(C)O)c2)cnc1N)c1c(Cl)ccc(F)c1Cl (stereo not shown) [Example 130, 1-(4-{6-Amino-5-[1-(2,6-dichloro-3-fluoro-phenyl)-ethoxy]-pyridin-3-yl}-pyrazol-1-yl)-2-methyl-propan-2-ol]
- Ki: 45 nM

SMILES: CC(Oc1cc(-c2cnn(CC3(C)COC3)c2)cnc1N)c1c(Cl)ccc(F)c1Cl (stereo not shown) [Example 131, 3-[1-(2,6-Dichloro-3-fluoro-phenyl)-ethoxy]-5-[1-(3-methyl-oxetan-3-ylmethyl)-1H-pyrazol-4-yl]-pyridin-2-ylamine]
- Ki: 50 nM

SMILES: CC(Oc1cc(-c2cnn(CC3CCOCC3)c2)cnc1N)c1c(Cl)ccc(F)c1Cl (stereo not shown) [Example 132, 3-[1-(2,6-Dichloro-3-fluoro-phenyl)-ethoxy]-5-[1-(tetraydro-pyran-4-ylmethyl)-1H-pyrazol-4-yl]-pyridin-2-amine]
- Ki: 42 nM

SMILES: CC(Oc1cc(-c2cnn(CCN3CCCC3=O)c2)cnc1N)c1c(Cl)ccc(F)c1Cl (stereo not shown) [Example 133, 1-[2-(4-{6-Amino-5-[1-(2,6-dichloro-3-fluoro-phenyl)-ethoxy]-pyridin-3-yl}pyrazol-1-yl)-ethyl]-pyrrolidin-2-one]
- Ki: 105 nM

SMILES: CC(Oc1cc(-c2cnn(C[C@H]3CCC(=O)N3)c2)cnc1N)c1c(Cl)ccc(F)c1Cl (stereo partly drawn) [Example 134, 5-(4-{6-Amino-5-[1-(2,6-dichloro-3-fluoro-phenyl)-ethoxy]-pyridin-3-yl}-pyrazol-1-ylmethyl)-pyrrolidin-2R-one]
- Ki: 24 nM

SMILES: CC(Oc1cc(-c2cnn(C3CCNCC3)c2)cnc1N)c1cc(F)ccc1C#N (stereo not shown) [Example 135, 2-{1-[2-Amino-5-(1-piperidin-4-yl-1H-pyrazol-4-yl)-pyridin-3-yloxy]ethyl}-4-fluoro-benzonitrile]
- Ki: 849 nM

SMILES: CC(Oc1cc(-c2cnn(C3CCNCC3)c2)cnc1N)c1c(Cl)ccc(O)c1Cl (stereo not shown) [Example 136, 3-{1-[2-Amino-5-(1-piperidin-4-yl-1H-pyrazol-4-yl)-pyridin-3-yloxy]-ethyl}-2,4-dichloro-phenol]
- Ki: 42 nM

SMILES: COc1ccc(Cl)c(C(C)Oc2cc(-c3cnn(C4CCNCC4)c3)cnc2N)c1Cl (stereo not shown) [Example 138, 3-(1-(2,6-Dichloro-3-methoxy-phenyl)-ethoxy]-5-(1-piperidin-4-yl-1H-pyrazol-4-yl)-pyridin-2-ylamine]
- Ki: 10 nM

SMILES: CCOc1ccc(Cl)c(C(C)Oc2cc(-c3cnn(C4CCNCC4)c3)cnc2N)c1Cl (stereo not shown) [Example 139]
- Ki: 22 nM

SMILES: CC(C)Oc1ccc(Cl)c(C(C)Oc2cc(-c3cnn(C4CCNCC4)c3)cnc2N)c1Cl (stereo not shown) [Example 140, 3-[1-(2,6-Dichloro-3-isopropoxy-phenyl)-ethoxy]-5-(1-piperidin-4-yl-1H-pyrazol-4-yl)-pyridin-2-ylamine]
- Ki: 37 nM

SMILES: COCCOc1ccc(Cl)c(C(C)Oc2cc(-c3cnn(C4CCNCC4)c3)cnc2N)c1Cl (stereo not shown) [Example 141, 3-{1-(2,6-Dichloro-3-(2-methoxy-ethoxy)-phenyl]-ethoxy}-5-(1-piperidin-4-yl-1H-pyrazol-4-yl)-pyridin-2-ylamine]
- Ki: 44 nM

SMILES: Cc1ccc(Cl)c(C(C)Oc2cc(Br)cnc2N)c1Cl (stereo not shown) [Example 142, 5-Bromo-3-[1-(2,6-dichloro-3-methyl-phenyl)ethoxy]-pyridin-2-ylamine]
- Ki: 2510 nM

SMILES: Cc1ccc(Cl)c(C(C)Oc2cc(-c3cnn(C4CCNCC4)c3)cnc2N)c1Cl (stereo not shown) [Example 143, 3-[1-(2,6-Dichloro-3-methyl-phenyl)-ethoxy]-5-(1-piperidin-4-yl-1H-pyrazol-4-yl)-pyridin-2-ylamine]
- Ki: 22 nM

SMILES: CC(Oc1cc(-c2cnn(C3CCNCC3)c2)cnc1N)c1cc(F)cc(F)c1Cl (stereo not shown) [Example 144, 3-[1-(2-Chloro-3,5-difluoro-phenyl)-ethoxy]-5-(1-piperidin-4-yl-1H-pyrazol-4-yl)-pyridin-2-ylamine]
- Ki: 587 nM

SMILES: CC(Oc1cc(Br)cnc1N)c1c(Cl)c(F)cc(F)c1Cl (stereo not shown) [Example 145, 5-Bromo-3-[1-(2,6-dichloro-3,5-difluoro-phenyl)-ethoxy]-pyridin-2-ylamine]
- Ki: 30 nM

SMILES: CC(Oc1cc(-c2cnn(C3CCNCC3)c2)cnc1N)c1c(Cl)c(F)cc(F)c1Cl (stereo not shown) [Example 146, 3-[1-(2,6-Dichloro-3,5-difluoro-phenyl)-ethoxy]-5-(1-piperidin-4-yl-1H-pyrazol-4-yl)-pyridin-2-ylamine]
- Ki: 30 nM

SMILES: CC(Oc1cc(-c2cnn(C3CCNCC3)c2)cnc1N)c1c(Cl)c(O)cc(F)c1Cl (stereo not shown) [Example 147, 3-{1-[2-Amino-5-(1-piperidin-4-yl-1H-pyrazol-4-yl)-pyridin-3-yloxy]ethyl}-2,4-dichloro-5-fluoro-phenol]
- Ki: 30 nM

SMILES: COc1cc(F)c(Cl)c(C(C)Oc2cc(-c3cnn(C4CCNCC4)c3)cnc2N)c1Cl (stereo not shown) [Example 148, 3-[1-(2,6-Dichloro-3-fluoro-5-methoxy-phenyl)-ethoxy]-5-(1-peridin-4-yl-1H-pyrazol-4-yl)-pyridin-ylamine]
- Ki: 23 nM

SMILES: CC(Oc1cc(-c2cnn(C)c2)cnc1N)c1c(Cl)c(F)cc(F)c1Cl (stereo not shown) [Example 149, 3-[1-(2,6-Dichloro-3,5-difluoro-phenyl)-ethoxy]-5-(1-methyl-1H-pyrazol-4-yl)-pyridin-2-ylamine]
- Ki: 72 nM

SMILES: CC(Oc1cc(-c2cnn(C3CCNCC3)c2)cnc1N)c1c(Cl)c(F)cc(N(C)C)c1Cl (stereo not shown) [Example 150, 3-[1-(2,6-Dichloro-3-dimethylamino-5-fluoro-phenyl)-ethoxy]-5-(1-piperidin-4-yl-1H-pyrazol-4-yl)-pyridin-2-ylamine]
- Ki: 163 nM

SMILES: CC(Oc1cc(-c2cnn(C)c2)cnc1N)c1c(Cl)c(F)cc(OC2CCNCC2)c1Cl (stereo not shown) [Example 151, 3-{1-[2,6-Dichloro-3-fluoro-5-(piperidin-4-yloxy)-phenyl]-ethoxy]-5-(1-methyl-1H-pyrazol-4-yl)-pyridin-2-ylamine]
- Ki: 25 nM

SMILES: CC(Oc1cc(-c2cnn(C)c2)cnc1N)c1c(Cl)c(F)cc(O[C@@H]2CCNC2)c1Cl (stereo partly drawn) [Example 152, 3-{1-[2,6-Dichloro-3-fluoro-5-(pyrrolidin-3R-yloxy)-phenyl]-ethoxy}-5-(1-methyl-1H-pyrazol-4-yl)-pyridin-2-ylamine]
- Ki: 32 nM

SMILES: CC(Oc1cc(Br)cnc1N)c1c(Cl)c(F)cc(OCCN(C)C)c1Cl (stereo not shown) [Example 153, 5-Bromo-3-{1-[2,6-dichloro-3-(2-dimethylamino-ethoxy)-5-fluoro-phenyl]-ethoxy}-pyridin-2-ylamine]
- Ki: 805 nM

SMILES: COc1cc(Cl)c(C(C)Oc2cc(-c3cnn(C4CCNCC4)c3)cnc2N)c(Cl)c1OC (stereo not shown) [Example 154, 3-(1-(2,6-Dichloro-3-dimethoxy-phenyl)-ethoxy]-5-(1-piperidin-4-yl-1H-pyrazol-4-yl)-pyridin-2-ylamine]
- Ki: 105 nM

SMILES: CC(Oc1cc(-c2cnn(C)c2)cnc1N)c1c(Cl)c(F)cc(OC2CNC2)c1Cl (stereo not shown) [Example 155, 3-{1-[3-(Azetidin-3-yloxy)-2,6-dichloro-5-fluoro-phenyl]-ethoxy}-5-(1-methyl-1H-pyrazol-4-yl)-pyridin-2-ylamine]
- Ki: 29 nM

SMILES: CC(Oc1cc(-c2cnn(C)c2)cnc1N)c1c(Cl)c(F)cc(OC2CCCNC2)c1Cl (stereo not shown) [Example 156, 3-{1-(2,6-Dichloro-3-fluoro-5-(piperidin-3-yloxy)-phenyl]-ethoxy}-5-(1-methyl-1H-pyrazol-4-yl)-pyridin-2-ylamine]
- Ki: 36 nM

SMILES: CC(Oc1cc(-c2cnn(C3CCNCC3)c2)cnc1N)c1c(Cl)c(F)cc(N2CCCC2=O)c1Cl (stereo not shown) [Example 157, 1-(3-{1-[2-Amino-5-(1-piperidin-4-yl-1H-pyrazol-4-yl)-pyridin-3-yloxy]-ethyl]-2,4-dichloro-5-fluoro-phenyl)-pyrrolidin-2-one]
- Ki: 51 nM
